# Data as given in patent US20220315895A1, “METHODS OF MAKING OLIGOPOTENT AND UNIPOTENT PRECURSORS” (Transfusion Health, LLC, priority 2019, published 2022).
# Legend:
# [1] = system: CD34+ cells from cord blood; assay: Expansion of cord blood CD34+ cells, seven-day culture (Example 35); format: cell-based, human; conditions: sample compound 8 μM, normalized fold change days 1 to 7
# Method: CD34+ cells from cord blood were purchased from STEMCELL Technologies. Primary human CD34+ cells were isolated from cord blood samples using positive immunomagnetic separation techniques. Cells were thawed and gradually brought to room temperature. Samples were washed, then placed in overnight culture in StemSpan with 100 ng/ml each of FLT3L, TPO, SCF, and TL-6. Eighteen to twenty-four hours later (day 1), cells were counted and immunophenotyped (flow cytometry on an Invitrogen Attune N×T cytometer).
# Approximately 1000 live cells were plated into each well of 96-well plates; exact cell numbers dispensed per well were quantified with flow cytometry for later calculations.
# Media for testing compounds of Formula I was prepared using Alpha MEM without phenol red, 10% (v/v) heat inactivated fetal bovine serum. Culture conditions also included an antibiotic solution that includes penicillin, streptomycin, and amphotericin B to avoid contamination. Additional media components and concentrations used for the compounds tested are described in Table 5.
# All incubations for this experiment took place at 3% oxygen (controlled by nitrogen) and 5% CO2. Following seven days of culture, cells from wells were collected and phenotypes were analyzed (flow cytometry on an Invitrogen Attune N×T cytometer).
# Table 6 below, summarizes the relative expansive effect of the screened compounds at the indicated concentration. The data in Table 6 is reported as the relative expansive effect. The relative expansive effect is a normalized value of the fold changes shown in each of the figures. It is calculated as shown below: […]
# [2] = system: hematopoietic stem cells derived from cord blood; assay: Enhancement of HSCs derived from cord blood with Compound 1.008 (Example 34); format: cell-based; conditions: 19 days in culture
# Method: A frozen cord blood sample was thawed and gradually brought to room temperature. Thawed cord blood was incubated in an in vitro culture media of Alpha MEM without phenol red, 10% (v/v) heat inactivated fetal bovine serum (FBS). Four samples were tested: Base conditions, +SF Conditions, +1.008 Conditions, and +1.008/+ER conditions. The components included in each condition is described in [0574] Table 4. Each condition tested also included an antibiotic solution that includes penicillin, streptomycin, and amphotericin B to avoid contamination.
# (§1) Cultures were incubated at […] (controlled by nitrogen) and 5% CO2.
# (§2) Small molecule components were added separately and fresh each time the media needs to be refreshed. Cytokines can be stored together. Media renewal should occur at least every few days.
# (§3) On the days indicated varying amounts of the cell culture was removed for data analysis (flow cytometry using a BD FACS ARIA II) and to avoid overcrowding of cells. The culture volume was replenished with fresh media according to the conditions tested. The data reported accounts for the dilution factor introduced in this procedure.
# [3] = system: CD34+ cells isolated from donor peripheral blood; assay: Enhancement of HSCs derived from non-mobilized peripheral blood with compounds of Formula I (Example 33); format: cell-based; conditions: sample compound 4 μM; normalized fold change days 2 to 7
# Method: CD34+ cells were isolated from donor peripheral blood. Standard buffy coat separation using ficoll paque was performed. Cells were pelleted and incubated with unlabeled CD64 antibody. Cells then underwent negative depletion using biotinylated CD2, CD3, CD4, CD5, CD8, CD11b, CD14, CD16, CD19, CD20, CD45RA, CD56, CD235 (in some examples CD15, CD25 and other lineage specific antibodies may also be used). Cells which bind these antibodies are depleted using streptavidin beads. The enriched progenitor pool then undergoes cell sorting for CD34+.
# Isolated CD34+ cells were incubated in an in vitro culture media of Alpha MEM without phenol red with 10% (v/v) heat inactivated fetal bovine serum (FBS). When testing compounds of Formula I, two internal controls were used: a positive control (+SF conditions) and a baseline control (i.e. basic conditions (“cytokines only”)). The media components and concentrations used for the compounds tested are described in [0563] Table 2. The culture also included an antibiotic solution that includes penicillin, streptomycin, and amphotericin B to avoid contamination. Controls were included because the amount of expansion in samples obtained varies from individual to individual.
# as §1, §2
# as §3, with “one-half of the volume” for “varying amounts”, “II).” for “II) and to avoid overcrowding of cells.”
# Separate experiments were performed for each compound tested (Compound 1.001-1.023).
# Table 3, below, summarizes the relative expansive effect of Compound 1.001 to 1.023 (sample compounds) at the indicated concentration. The data in Table 3 is reported as the relative expansive effect. The relative expansive effect is a normalized value of the fold changes shown in each of FIG. 1-FIG. 23. It is calculated as shown below: […]
# [4] = +1.008 conditions (Compound 1.008 250 nM)
compound,measurement,setting,value
"CC(C)(C)C(=O)Nc1ccc2c(c1)C(=O)c1cc(N)ccc1-2 [Compound 1.008, N-(7-amino-9-oxo-9H-fluoren-2-yl)pivalamide]",CD90 effect (relative expansive effect on CD34+/CD133+/CD90+ cells),[1],++++ (2.16 ≤ x < 2.52)
same,CD133 effect (relative expansive effect on CD34+/CD133+ cells),[1],++++ (2.16 ≤ x < 2.52)
same,fold increase in CD34+/CD133+ cells from day 2,[2]; [4],greater than 50 fold
same,fold increase in CD34+/CD133+/CD90+ cells from day 2,[2]; [4],~20 fold
same,fold increase in CD34+/CD133+/CD90+/CD38low/− cells from day 2,[2]; [4],> 12 fold
same,fold increase in CD34+ cells from day 2,"[2]; +1.008 conditions (Compound 1.008 250 nM, TPO, SCF, FLT3L)",greater than 50 fold
same,CD90 effect (relative expansive effect on CD34+/CD133+/CD90+ cells),[3],+++++ (1.25 ≤ x)
same,CD133 effect (relative expansive effect on CD34+/CD133+ cells),[3],+++ (0.55 ≤ x < 0.9)
